Two compounds from US7235679B2, “Crystals of a vitamin D derivative and a method for the preparation thereof” (Chugai Seiyaku Kabushiki Kaisha, priority 1996, dated 2007) can be followed below.

A short description of series [1]: Stability of ED-71 crystalline compound, overall conclusion. It counts as physicochemical. The following applies: up to 2 weeks at 25° C. and 40° C. The procedure: (§1) Amorphous and crystalline ED-71 compounds were tested for stability at 10, 25 and […]. To estimate the stability, HPLC quantitative assay and absorbance and purity measurements were utilized. The purity was expressed as peak area ratio in percentage in HPLC (% P.A.R.). The test was carried out by using the following procedures:
(§2) About 2 mg portions of each of the amorphous and crystalline samples are precisely weighed into transparent 10 ml test tubes each having screw cap, individually.
(§3) The test tubes are purged with argon using a vacuum desiccator and a glove box. This purging procedure is not applied to the test tubes indicated as “1 M (air)” in the tables below.
(§4) The test tubes in groups are fixed in thermostatic baths which are respectively controlled at the above temperatures and allowed to stand in the dark. After one (1 W) or two (2 W) weeks or one month (1 M), the test tubes are removed from the baths and subjected to the following assay and measurements:
The values of the HPLC quantitative assay and the purity measurement are averaged over two runs.

Series [2] is described as follows: Stability test of ED-71: HPLC quantitative assay (survivability). Format: physicochemical. How it is done: as §1, §2, §3, §4
5 ml of absolute ethanol is precisely added to the test tube to form a sample solution. 1 ml of the sample solution and 1 ml of an internal standard solution are both precisely added to another test tube and the resulting mixture is diluted with methylene chloride to give a whole volume of 20 ml. This diluted solution is designated solution 1. The internal standard solution is formed by dissolving 2-aminopyrimidine in methanol to a concentration of 0.6 mg/ml.
Next, both of 1 ml of another standard solution for quantitative assay which is formed by dissolving crystalline ED-71 in absolute ethanol to a concentration of 0.4 mg/ml and 1 ml of the internal standard solution are precisely added to another test tube and the resulting mixture is diluted with methylene chloride to give a whole volume of 20 ml. This diluted solution is designated solution 2.
HPLC is carried out using 20 μl of each of solutions 1 and 2. For each solution, an area ratio of the peak of ED-71 to the peak of the internal standard substance is determined from the HPLC data. The ED-71 content in the sample is determined from the ratio of the area ratio for solution 1 to that for solution 2.
Survivability (%) is determined by dividing the ED-71 content thus obtained by ED-71 content in the same sample but prior to the above treatment. • HPLC conditions used: • Column: YMC A-004SIL (4.6×300 mm) • Mobile phase: methylene chloride/methanol mixture (95/5) • Flow rate: 1 ml/min • Detection: at UV 265 nm. (3) Absorbance Measurement

As for `C=C1/C(=C\C=C2/CCC[C@]3(C)[C@@H]([C@H](C)CCCC(C)(C)O)CC[C@@H]23)C[C@@H](O)[C@@H](OCCCO)[C@@H]1O` [Crys., 1α,25-dihydroxy-2β-(3-hydroxypropoxy)vitamin D3], in series [1], the “stability compared with the amorphous form” value was “higher stability”. For the same compound, the “HPLC Quantitative Assay (% Survivability)” value worked out at 95.0% in series [2] (10° C., 1 M (air), dark); 97.0% in series [2] (10° C., 1 M, argon, dark); 96.8% in series [2] (10° C., 2 W, argon, dark); 100% in series [2] (10° C., time 0); 99.4% in series [2] (25° C., 1 W, argon, dark); 98.8% in series [2] (25° C., 2 W, argon, dark). Besides, the “HPLC Quantitative Assay (% Survivability)” value in series [2] (25° C., time 0) amounted to 100%; in series [2] (40° C., 1 W, argon, dark), 99.5%; in series [2] (40° C., 2 W, argon, dark) it was 102.9%; in series [2] (40° C., time 0) it was 100%.
In the case of `C=C1/C(=C\C=C2/CCC[C@@]3(C)C2CC[C@@H]3[C@H](C)CCCC(C)(C)O)C[C@@H](O)[C@@H](OCCCO)[C@@H]1O` (stereo partly drawn) [Amor., 1α,25-dihydroxy-2β-(3-hydroxypropoxy)vitamin D3], the “HPLC Quantitative Assay (% Survivability)” value in series [2] (10° C., 1 M (air), dark) is reported as 97.4%; in series [2] (10° C., 1 M, argon, dark) it was 94.8%; in series [2] (10° C., 2 W, argon, dark), 98.5%; in series [2] (10° C., time 0), 100%; in series [2] (25° C., 1 W, argon, dark), 99.5%; in series [2] (25° C., 2 W, argon, dark) it was 94.7%. In addition, the “HPLC Quantitative Assay (% Survivability)” value in series [2] (25° C., time 0) is recorded as 100%; in series [2] (40° C., 1 W, argon, dark) it was 99.4%; in series [2] (40° C., 2 W, argon, dark) it was 88.8%; in series [2] (40° C., time 0), 100%.
